# System: person's skin
# Experiment: Experimentation with ingredient concentrations in the ointment formulation applied to a person's skin
# Format: in vivo, human
# Details: Zinc Oxide amount lesser than 4.70% of the formulation
# Text: The ointment formulation includes an occlusive and nourishing ingredient in an amount configured to reduce moisture evaporation from and seal the skin. The specific occlusive and nourishing ingredient in the subject ointment formulation may be Lanolin. Lanolin is additionally selected for its ability to supply the skin with a majority of the 23 proteinogenic, i.e., protein-building, amino acids, which combine into peptide chains to form the building blocks of a vast array of proteins. In an exemplary 126.0 ml volume sample of the ointment formulation, the specific volume of the Lanolin ingredient was 103.53 ml, or 82.17%. Although Lanolin made up 82.17% of the exemplary sample, the allowable range of the Lanolin ingredient in the ointment formulation is approximately 74-85%.
# The ointment formulation having the specific disclosed volume of Lanolin is for a moderate to severe condition of the skin. Although the amount of Lanolin may be increased for more severe conditions, the disclosed specific concentration of 82.17% is near the maximum that may be used while maintaining the necessary amounts of the other ingredients. Accordingly, as the volume of Lanolin is adjusted for severity of the particular skin condition, the amounts of other ingredients to be described with specificity below would have to be adjusted accordingly. […]
compound,measurement,value
[O]=[Zn] [Zinc Oxide],effectiveness,has not shown to be effective

# From patent publication US20140271920A1, “SKIN OINTMENT FORMULATION” (priority 2013, published 2014)
